Data published in patent US9346761B2, “Arginine methyltransferase inhibitors and uses thereof” (Epizyme, Inc., priority 2013, dated 2016).

Key:
Full-length human PRMT8 = molecular target: T1, Full-length human PRMT8 (Homo sapiens, UniProt Q9NR22); assay: PRMT8 biochemical assay (3H-SAM Flashplate, peptide substrate)
T1 construct: Full-length human PRMT8 (NM_019854.4) isoform 1 transcript clone; made in house
Source text: General Materials. S-adenosylmethionine (SAM), S-adenosylhomocysteine (SAH), bicine, Tween20, dimethylsulfoxide (DMSO), bovine skin gelatin (BSG), isopropyl-β-D-thiogalactopyranoside (IPTG), and Tris(2-carboxyethyl)phosphine hydrochloride solution (TCEP) were purchased from Sigma-Aldrich at the highest level of purity possible. ^3H-SAM was purchase from American Radiolabeled Chemicals with a specific activity of 80 Ci/mmol. 384-well streptavidin Flashplates were purchased from PerkinElmer.
Substrates. Peptide representative of human histone H4 residues 31-45 was synthesized with an N-terminal linker-affinity tag motif and a C-terminal amide cap by 21st Century Biochemicals.
Protein Expression. E. coli (BL21(DE3) Gold, Stratagene) made competent by the CaCl2 method were transformed with the PRMT8 construct and ampicillin selection. Protein over-expression was accomplished by growing the PRMT8 expressing E. coli clone and inducing expression with 0.3 mM IPTG at 16° C. The culture was grown for 12 hours, harvested by centrifugation, and stored at −80° C. for purification.
Protein Purification. […] GST-tagged PRMT8 was eluted with 50 mM Tris, 2 mM glutathione, pH 7.8. Pooled fractions were cleaved by thrombin (10 U) and dialysed in buffer A. GST was removed by reloading the cleaved protein sample onto glutathione sepharose column and PRMT8 was collected in the flow-through fractions. PRMT8 was purified further by ceramic hydroxyapatite chromatography. The column was washed with 50 mM phosphate buffer, 100 mM NaCl, 5% glycerol, 5 mM β-mercaptoethanol, pH 7.8 and PRMT8 was eluted by 100 mM phosphate in the same buffer. Protein was concentrated and buffer was exchanged to 50 mM Tris, 300 mM NaCl, 10% glycerol, 5 mM β-mercaptoethanol, pH 7.8 by ultrafiltration.
General Procedure for PRMT8 Enzyme Assays on Peptide Substrates. The assays were all performed in a buffer consisting of 20 mM Bicine (pH=7.6), 1 mM TCEP, 0.005% BSG, and 0.002% Tween 20, prepared on the day of use. […] DMSO (1 ul) was added to Columns 11, 12, 23, 24, rows A-H for the maximum signal control and 1 ul of SAH, a known product and inhibitor of PRMT8, was added to columns 11, 12, 23, 24, rows I-P for the minimum signal control. A cocktail (40 ul) containing the PRMT8 enzyme was added by Multidrop Combi (Thermo-Fisher). The compounds were allowed to incubate with PRMT8 for 30 min at room temperature, then a cocktail (10 ul) containing ^3H-SAM and peptide was added to initiate the reaction (final volume=51 ul). […] The assays were stopped by the addition of non-radiolabeled SAM (10 ul) to a final concentration of 400 uM, which dilutes the ^3H-SAM to a level where its incorporation into the peptide substrate is no longer detectable. 50 ul of the reaction in the 384-well polypropylene plate was then transferred to a 384-well Flashplate and the biotinylated peptides were allowed to bind to the streptavidin surface for at least 1 hour before being washed once with 0.1% Tween20 in a Biotek ELx405 plate washer. The plates were then read in a PerkinElmer TopCount plate reader to measure the quantity of ^3H-labeled peptide bound to the Flashplate surface, measured as disintegrations per minute (dpm) or alternatively, referred to as counts per minute (cpm).
Where dpm=disintegrations per minute, cmpd=signal in assay well, and min and max are the respective minimum and maximum signal controls.
Where top and bottom are the normally allowed to float, but may be fixed at 100 or 0 respectively in a 3-parameter fit. The Hill Coefficient normally allowed to float but may also be fixed at 1 in a 3-parameter fit. Y is the % inhibition and X is the compound concentration.

[1] = system: mono-methyl arginine in RKO cells; assay: RKO methylation assay, In Cell Western for mono-methyl arginine and DNA content; type: cell-based; details: Homo sapiens; In Cell Western, RKO cells, 72 hours, percent activation of mono-methyl arginine signal; read-out: EC30

T1 sequence (Q9NR22 whole entry, canonical isoform): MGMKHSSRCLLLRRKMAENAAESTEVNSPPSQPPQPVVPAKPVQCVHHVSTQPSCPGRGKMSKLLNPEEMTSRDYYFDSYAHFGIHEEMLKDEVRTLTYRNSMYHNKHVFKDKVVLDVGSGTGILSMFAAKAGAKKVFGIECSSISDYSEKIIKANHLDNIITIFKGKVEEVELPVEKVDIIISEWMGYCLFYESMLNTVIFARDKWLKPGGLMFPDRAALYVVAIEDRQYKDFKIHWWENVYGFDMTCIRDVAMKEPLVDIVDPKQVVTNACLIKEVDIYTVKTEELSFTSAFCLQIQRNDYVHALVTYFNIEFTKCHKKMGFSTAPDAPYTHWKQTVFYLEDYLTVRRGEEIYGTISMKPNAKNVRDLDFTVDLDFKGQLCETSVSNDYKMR

Which results are given for `Cc1cc(F)ccc1-c1n[nH]cc1CN(C)CCN` [Compound 152]?
IC50 (Full-length human PRMT8): 0.101 to 1 µM; EC30 [1]: 3.01 to 12 µM

`COc1ccc(-c2n[nH]cc2CN(C)CCN)cc1` [Compound 153] was tested. Which IC50 (Full-length human PRMT8) did it give?
The IC50 was 0.101 to 1 µM.

What about the EC30 [1] of the same molecule?
The EC30 was less than 3 µM.

Which results are given for `COc1ccc(-c2n[nH]cc2CN(C)CCN)c(C(F)(F)F)c1` [Compound 154]?
IC50 (Full-length human PRMT8): 3.01 to 10 µM; EC30 [1]: > 12 µM

Which IC50 (Full-length human PRMT8) does the source give for `COc1ccc(-c2n[nH]cc2CN(C)CCN)c(C)c1` [Compound 155] here?
The IC50 was 0.101 to 1 µM.

And the EC30 [1]?
The EC30 was 3.01 to 12 µM.

Which IC50 (Full-length human PRMT8) does the source give for `CN(CCN)Cc1c[nH]nc1-c1cc(Cl)ccc1F` [Compound 156] here?
Its IC50 is 1.01 to 3 µM.

What about the EC30 [1] of the same molecule?
The EC30 was 3.01 to 12 µM.

Which IC50 (Full-length human PRMT8) does the source give for `COc1ccc(Cl)cc1-c1n[nH]cc1CN(C)CCN` [Compound 157] here?
The IC50 was 3.01 to 10 µM.

And the EC30 [1]?
The EC30 was greater than 12 µM.

`Cc1ccc(C#N)cc1-c1n[nH]cc1CN(C)CCN` [Compound 158] was tested. Which IC50 (Full-length human PRMT8) did it give?
The IC50 was greater than 10 µM.

What about the EC30 [1] of the same molecule?
Its EC30 is greater than 12 µM.

Which results are given for `Cc1ccc(F)cc1-c1n[nH]cc1CN(C)CCN` [Compound 159]?
IC50 (Full-length human PRMT8): 0.101 to 1 µM; EC30 [1]: 3.01 to 12 µM

Which IC50 (Full-length human PRMT8) does the source give for `COc1ccc(F)cc1-c1n[nH]cc1CN(C)CCN` [Compound 160] here?
Its IC50 is 3.01 to 10 µM.

And the EC30 [1]?
Its EC30 is greater than 12 µM.

With `Cc1ccccc1-c1n[nH]cc1CN(C)CCN` [Compound 161] as the molecule, how does the IC50 (Full-length human PRMT8) read?
The IC50 was 1.01 to 3 µM.

And the EC30 [1]?
Its EC30 is greater than 12 µM.

Which IC50 (Full-length human PRMT8) does the source give for `Cc1ccc(-c2n[nH]cc2CN(C)CCN)cc1` [Compound 162] here?
Its IC50 is 0.101 to 1 µM.

And the EC30 [1]?
Its EC30 is less than 3 µM.

`CCN(C)C(=O)c1ccc(-c2n[nH]cc2CN(C)CCN)cc1` [Compound 163] was tested. Which IC50 (Full-length human PRMT8) did it give?
The IC50 was 1.01 to 3 µM.

And the EC30 [1]?
The EC30 was greater than 12 µM.

What does the source list for `CC(C)CN(C)C(=O)c1ccc(-c2n[nH]cc2CN(C)CCN)cc1` [Compound 164]?
IC50 (Full-length human PRMT8): 1.01 to 3 µM; EC30 [1]: > 12 µM

What does the source list for `CCOc1ccc(-c2n[nH]cc2CN(C)CCN)cc1` [Compound 166]?
IC50 (Full-length human PRMT8): 0.101 to 1 µM; EC30 [1]: < 3 µM

With `COCCOc1ccc(-c2n[nH]cc2CN(C)CCN)cc1` [Compound 167] as the molecule, how does the IC50 (Full-length human PRMT8) read?
The IC50 was 0.101 to 1 µM.

What about the EC30 [1] of the same molecule?
The EC30 was less than 3 µM.

`Cc1[nH]nc(-c2ccc(F)cc2)c1CN(C)CCN` [Compound 169] was tested. Which IC50 (Full-length human PRMT8) did it give?
The IC50 was 1.01 to 3 µM.

And the EC30 [1]?
The EC30 was greater than 12 µM.

For `CC(C)Cc1ccc(-c2c[nH]nc2CN(C)CCN)cc1` [Compound 170], which IC50 (Full-length human PRMT8) is on record?
The IC50 was 0.101 to 1 µM.

What about the EC30 [1] of the same molecule?
The EC30 was less than 3 µM.

Which results are given for `NCCN(CCO)Cc1c[nH]nc1-c1ccc(F)cc1` [Compound 171]?
IC50 (Full-length human PRMT8): 1.01 to 3 µM; EC30 [1]: > 12 µM

Which IC50 (Full-length human PRMT8) does the source give for `CN(CCN)Cc1c[nH]nc1-c1ccc(OCCN2CCOCC2)cc1` [Compound 172] here?
The IC50 was 3.01 to 10 µM.

And the EC30 [1]?
Its EC30 is greater than 12 µM.

How did the IC50 (Full-length human PRMT8) turn out when `CN(CCN)Cc1c[nH]nc1-c1ccc2c(c1)NC(=O)CO2` [Compound 173] was run?
Its IC50 is 3.01 to 10 µM.

What about the EC30 [1] of the same molecule?
The EC30 was greater than 12 µM.
